Experimental data reported in patent US8470886B2, “Topical ibuprofen formulations” (NUVO Research Inc., priority 2009, dated 2013).
Where a name gives a salt, the structure may show the parent alone.

How the values were obtained:
pH of the formulation = type: physicochemical; settings: Table 20; single ingredient in water at its Ib949 wt %
[1] = cited from earlier work
[2] = Skin permeation of ibuprofen through porcine skin, Franz diffusion cells (finite dosing); type: in vitro ADME; settings: bar graphs FIG. 1-13
Method: “Enhancement ratio” (“ER”) as used herein is the ratio of a test result (e.g., ug/cm^2 accumulated dose of product) from a formulation comprising ibuprofen to the corresponding test result from a control composition comprising ibuprofen at the same concentration in the formulation.
“Ratio”, as it pertains to comparative flux values described herein, are calculated based on the cumulative amount of active (e.g. ibuprofen) delivered through the skin over a period of 4-60 hrs, preferably 24 hrs.
The permeation of ibuprofen through porcine skin from each of the present formulations was measured using Franz diffusion cells (“FDC”s). Porcine skin pieces are obtained from Lampire Biological Laboratories, Inc., Pipersville, Pa. Porcine skins were collected immediately following animal sacrifice, and the hairs were trimmed with clippers. Larger pieces of excess fat were removed with a filet knife. The skin was then trimmed to a set thickness of some 2 mm, cut into individual pieces, wrapped in aluminum foil, frozen, shipped, and stored at −78° C.
Prior to use, the skin pieces were allowed to thaw, in air, to room temperature. […]
Samples were drawn from the receptor wells at various times, as provided in the examples that follow. […] The concentrations of ibuprofen in the samples were measured using HPLC analysis using a C18 column and acetonitrile and water as the mobile phase. […]

Compound | pH-water and ingredients (pH of the formulation) | further results
COC(=O)c1ccc(O)cc1 [MP] | 5.72 | 
CC(C)Cc1ccc(C(C)C(=O)O)cc1 (racemic) [Ibuprofen, 2-(4-isobutylphenyl)propanoic acid] |  | Solubility in polar organic solvents ([1]; ethanol and acetone): readily soluble; Solubility in water ([1]; water): < 100 µg/mL
CCO [Ethanol] | 7.31 | 
CC(O)C(=O)O (centres unmarked) [Lactic Acid] | 2.4 | 
CC(C)Cc1ccc([C@H](C)C(=O)O)cc1 [(S) form, (S+)-ibuprofen] |  | Flux / permeation of ibuprofen, result in words [2]: no significant difference in flux

Further lines, with some results ahead:

pH-water and ingredients (pH of the formulation) | Compound | further results
6.97 | CC(O)CO (centres unmarked) [PG] | 
3.72 | CCOC(=O)CC(O)(CC(=O)OCC)C(=O)OCC [Triethyl Citrate] | 
6.13 | CCCOC(=O)c1ccc(O)cc1 [PP] | 
7.97 | CCCCCCCCCCCCOS(=O)(=O)[O-].[Na+] [Na Lauryl Sulfate] | 
4.32 | CCOCCOCCO [Transcutol] | 
